According to patent publication US11180504B2 (ORCHID PHARMA LTD., priority 2016, dated 2021):
Values after ≈ are worked out from the molar mass of the structure shown.

Legend:
[1] = test system: carbapenemase producing K. pneumoniae; test: MIC by broth micro-dilution (CLSI), carbapenemase producing K. pneumoniae; assay type: cell-based, Klebsiella pneumoniae; details: Klebsiella pneumoniae, ATCCBAA1705, KPC-2 K. pneumoniae ATCC BAA-1705; read-out: MIC
[2] = test system: carbapenem sensitive Escherichia coli; test: MIC by broth micro-dilution (CLSI), carbapenem sensitive E. coli; assay type: cell-based; details: Escherichia coli, ATCC25922, ESBL −ve E. coli ATCC25922; read-out: MIC
[3] = test system: methicillin-sensitive Staphylococcus aureus; test: MIC by broth micro-dilution (CLSI), methicillin-sensitive S. aureus; assay type: cell-based; details: Staphylococcus aureus, ATCC 29213 / MSSA, MSSA S. aureus ATCC29213; read-out: MIC
[4] = test system: carbapenem sensitive Pseudomonas aeruginosa; test: MIC by broth micro-dilution (CLSI), carbapenem sensitive P. aeruginosa; assay type: cell-based; details: Pseudomonas aeruginosa, ATCC27853, Meropenem susceptible P. aeruginosa ATCC27853; read-out: MIC
[5] = test system: extended spectrum β lactamase (ESBL) SHV18 producing Klebsiella pneumoniae; test: MIC by broth micro-dilution (CLSI), ESBL SHV18 producing K. pneumoniae; assay type: cell-based; details: Klebsiella pneumoniae, ATCC700603, 22 h, ESBL +ve (SHV-18) K. pneumoniae ATCC700603; read-out: MIC

## C[C@@H](NC(=O)[C@@H]1CCCN1)[C@H]1C(=O)N2C(C(=O)O)=C(S[C@@H]3CN[C@H](C(=O)N4CC[C@@H](N)C4)C3)[C@H](C)[C@H]12 [Example 205]
[1]
  MIC: 4 µg/mL (≈ 7.68 µM)
[2]
  MIC: 1 µg/mL (≈ 1.92 µM)
[3]
  MIC: 32 µg/mL (≈ 61.5 µM)
[4]
  MIC: 8 µg/mL (≈ 15.4 µM)
[5]
  MIC: 2 µg/mL (≈ 3.84 µM)

## C[C@@H](NC(=O)C(F)F)[C@H]1C(=O)N2C(C(=O)O)=C(S[C@@H]3CN[C@H](C(=O)N4CCNCC4)C3)[C@H](C)[C@H]12 [Example 120]
[1]
  MIC: 4 µg/mL (≈ 7.98 µM)
[2]
  MIC: 0.5 µg/mL (≈ 0.997 µM)
[3]
  MIC: 2 µg/mL (≈ 3.99 µM)
[4]
  MIC: 4 µg/mL (≈ 7.98 µM)
[5]
  MIC: 4 µg/mL (≈ 7.98 µM)

## C[C@@H](NC(=O)[C@H](N)Cc1ccccc1)[C@H]1C(=O)N2C(C(=O)O)=C(S[C@@H]3CN[C@H](C(=O)N(C)C)C3)[C@H](C)[C@H]12 [Example 72]
[1]
  MIC: > 128 µg/mL
[2]
  MIC: 32 µg/mL (≈ 60.4 µM)
[3]
  MIC: 32 µg/mL (≈ 60.4 µM)
[4]
  MIC: > 128 µg/mL
[5]
  MIC: > 128 µg/mL

## C[C@@H](NC(=O)C(F)F)[C@H]1C(=O)N2C(C(=O)O)=C(S[C@@H]3CN[C@H](C(=O)N4CC[N+](C)(CC(N)=O)CC4)C3)[C@H](C)[C@H]12 [Example 46]
[1]
  MIC: 8 µg/mL
[2]
  MIC: 1 µg/mL
[3]
  MIC: 1 µg/mL
[4]
  MIC: 16 µg/mL
[5]
  MIC: 4 µg/mL

## C[C@@H](NS(C)(=O)=O)[C@H]1C(=O)N2C(C(=O)O)=C(S[C@@H]3CN[C@H](C(=O)N4CCC(N)C4)C3)[C@H](C)[C@H]12 (stereo in doubt) [Example 362, (4R,5S,6S)-3-((3S,5S)-5-((R)-3-aminopyrrolidine-1-carbonyl)pyrrolidin-3-ylthio)-4-methyl-6-((R)-1-(methylsulfonamido)ethyl)-7-oxo-1-azabicyclo[3.2.0]hept-2-ene-2-carboxylic acid]
[1]
  MIC: 4 µg/mL (≈ 7.97 µM)
[2]
  MIC: 0.25 µg/mL (≈ 0.498 µM)
[3]
  MIC: 8 µg/mL (≈ 15.9 µM)
[4]
  MIC: 4 µg/mL (≈ 7.97 µM)
[5]
  MIC: 4 µg/mL (≈ 7.97 µM)

## COc1coc(CNC(=O)[C@@H]2C[C@H](SC3=C(C(=O)O)N4C(=O)[C@H]([C@@H](C)NC(=O)C(F)F)[C@H]4[C@H]3C)CN2)cc1=O [Example 137]
[1]
  MIC: 8 µg/mL (≈ 14 µM)
[2]
  MIC: 1 µg/mL (≈ 1.75 µM)
[3]
  MIC: 4 µg/mL (≈ 7.01 µM)
[4]
  MIC: > 128 µg/mL
[5]
  MIC: 8 µg/mL (≈ 14 µM)

## C[C@@H](NC(=O)C(F)F)[C@H]1C(=O)N2C(C(=O)O)=C(S[C@@H]3CN[C@H](C(=O)N4C[C@@H](N)C[C@H]4CNS(N)(=O)=O)C3)[C@H](C)[C@H]12 [Example 212]
[1]
  MIC: 4 µg/mL (≈ 6.56 µM)
[2]
  MIC: 0.5 µg/mL (≈ 0.82 µM)
[3]
  MIC: 1 µg/mL (≈ 1.64 µM)
[4]
  MIC: 8 µg/mL (≈ 13.1 µM)
[5]
  MIC: 2 µg/mL (≈ 3.28 µM)

## C[C@@H](NC(=O)C(F)F)[C@H]1C(=O)N2C(C(=O)O)=C(S[C@@H]3CN[C@H](C(=O)N4CC[C@@H](NCC(N)=O)C4)C3)[C@H](C)[C@H]12 [Example 154]
[1]
  MIC: 8 µg/mL (≈ 14.3 µM)
[2]
  MIC: 1 µg/mL (≈ 1.79 µM)
[3]
  MIC: 4 µg/mL (≈ 7.16 µM)
[4]
  MIC: 64 µg/mL (≈ 115 µM)
[5]
  MIC: 2 µg/mL (≈ 3.58 µM)

## C[C@@H](NC(=O)[C@H](N)CO)[C@H]1C(=O)N2C(C(=O)O)=C(S[C@@H]3CN[C@H](C(=O)N(C)C)C3)[C@H](C)[C@H]12 [Example 56]
[1]
  MIC: 16 µg/mL (≈ 34.1 µM)
[2]
  MIC: 8 µg/mL (≈ 17 µM)
[3]
  MIC: 64 µg/mL (≈ 136 µM)
[4]
  MIC: 64 µg/mL (≈ 136 µM)
[5]
  MIC: 16 µg/mL (≈ 34.1 µM)

## CNCC(=O)N[C@H](C)[C@H]1C(=O)N2C(C(=O)O)=C(S[C@@H]3CN[C@H](C(=O)N4CCN(CCN)CC4)C3)[C@H](C)[C@H]12 [Example 221]
[1]
  MIC: 2 µg/mL (≈ 3.72 µM)
[2]
  MIC: 2 µg/mL (≈ 3.72 µM)
[3]
  MIC: 32 µg/mL (≈ 59.5 µM)
[4]
  MIC: 4 µg/mL (≈ 7.44 µM)
[5]
  MIC: 2 µg/mL (≈ 3.72 µM)

## CN[C@H]1CCN(C(=O)[C@@H]2C[C@H](SC3=C(C(=O)O)N4C(=O)[C@H]([C@@H](C)NC(=O)C(F)F)[C@H]4[C@H]3C)CN2)C1 [Example 106]
[1]
  MIC: 4 µg/mL (≈ 7.76 µM)
[2]
  MIC: 1 µg/mL (≈ 1.94 µM)
[3]
  MIC: 4 µg/mL (≈ 7.76 µM)
[4]
  MIC: 4 µg/mL (≈ 7.76 µM)
[5]
  MIC: 4 µg/mL (≈ 7.76 µM)

## CNCC(=O)N[C@H](C)[C@H]1C(=O)N2C(C(=O)O)=C(S[C@@H]3CN[C@H](C(=O)N4CCNCC4)C3)[C@H](C)[C@H]12 [Example 168]
[1]
  MIC: 2 µg/mL (≈ 4.04 µM)
[2]
  MIC: 1 µg/mL (≈ 2.02 µM)
[3]
  MIC: 16 µg/mL (≈ 32.3 µM)
[4]
  MIC: 2 µg/mL (≈ 4.04 µM)
[5]
  MIC: 2 µg/mL (≈ 4.04 µM)

## CNC(=O)C(=O)N[C@H](C)[C@H]1C(=O)N2C(C(=O)O)=C(S[C@@H]3CN[C@H](C(=O)N(C)C)C3)[C@H](C)[C@H]12 [Example 75]
[1]
  MIC: 16 µg/mL (≈ 34.2 µM)
[2]
  MIC: 1 µg/mL (≈ 2.14 µM)
[3]
  MIC: 4 µg/mL (≈ 8.56 µM)
[4]
  MIC: > 128 µg/mL
[5]
  MIC: 8 µg/mL (≈ 17.1 µM)

## C[C@@H](Oc1ccon1)[C@H]1C(=O)N2C(C(=O)O)=C(S[C@@H]3CN[C@H](C(=O)N(C)C)C3)[C@H](C)[C@H]12 [Example 187]
[1]
  MIC: 64 µg/mL (≈ 142 µM)
[2]
  MIC: 2 µg/mL (≈ 4.44 µM)
[3]
  MIC: 4 µg/mL (≈ 8.88 µM)
[4]
  MIC: 128 µg/mL (≈ 284 µM)
[5]
  MIC: 8 µg/mL (≈ 17.8 µM)

## C[C@H]([C@H]1C(=O)N2C(C(=O)O)=C(SC3CN[C@H](C(=O)N4CC[C@@H](N)C4)C3)[C@H](C)[C@H]12)n1cc(CO)nn1 (stereo partly shown) [Example 167]
[1]
  MIC: 4 µg/mL (≈ 7.91 µM)
[2]
  MIC: 4 µg/mL (≈ 7.91 µM)
[3]
  MIC: 2 µg/mL (≈ 3.96 µM)
[4]
  MIC: 32 µg/mL (≈ 63.3 µM)
[5]
  MIC: 4 µg/mL (≈ 7.91 µM)

## C[C@@H](NC(=O)C(F)F)[C@H]1C(=O)N2C(C(=O)O)=C(S[C@@H]3CN[C@H](C(=O)N4CC[C@H](NC(=O)CC#N)C4)C3)[C@H](C)[C@H]12 [Example 119]
[1]
  MIC: 8 µg/mL (≈ 14.1 µM)
[2]
  MIC: 0.5 µg/mL (≈ 0.879 µM)
[3]
  MIC: 2 µg/mL (≈ 3.52 µM)
[4]
  MIC: 16 µg/mL (≈ 28.1 µM)
[5]
  MIC: 1 µg/mL (≈ 1.76 µM)

## C[C@@H](NS(=O)(=O)C(F)(F)F)[C@H]1C(=O)N2C(C(=O)O)=C(S[C@@H]3CN[C@H](C(=O)N4CCOCC4)C3)[C@H](C)[C@H]12 [Example 29]
[1]
  MIC: > 128 µg/mL
[2]
  MIC: 1 µg/mL (≈ 1.8 µM)
[3]
  MIC: 4 µg/mL (≈ 7.19 µM)
[4]
  MIC: 128 µg/mL (≈ 230 µM)
[5]
  MIC: 8 µg/mL (≈ 14.4 µM)

## CC(C)C[C@@H](F)C(=O)N[C@H](C)[C@H]1C(=O)N2C(C(=O)O)=C(S[C@@H]3CN[C@H](C(=O)N(C)C)C3)[C@H](C)[C@H]12 [Example 79]
[1]
  MIC: > 128 µg/mL
[2]
  MIC: 32 µg/mL (≈ 64.2 µM)
[3]
  MIC: 4 µg/mL (≈ 8.02 µM)
[4]
  MIC: > 128 µg/mL
[5]
  MIC: > 128 µg/mL

## CNCC(=O)N[C@H](C)[C@H]1C(=O)N2C(C(=O)O)=C(S[C@@H]3CN[C@H](C(=O)N4CC[C@H](n5cc(CN)nn5)C4)C3)[C@H](C)[C@H]12 [Example 178]
[1]
  MIC: 4 µg/mL (≈ 6.95 µM)
[2]
  MIC: 2 µg/mL (≈ 3.47 µM)
[3]
  MIC: 32 µg/mL (≈ 55.6 µM)
[4]
  MIC: 4 µg/mL (≈ 6.95 µM)
[5]
  MIC: 4 µg/mL (≈ 6.95 µM)

## C[C@@H](NC(=O)CN(C)C)[C@H]1C(=O)N2C(C(=O)O)=C(S[C@@H]3CN[C@H](C(=O)N4CCNCC4)C3)[C@H](C)[C@H]12 [Example 182]
[1]
  MIC: 16 µg/mL (≈ 31.5 µM)
[2]
  MIC: 8 µg/mL (≈ 15.7 µM)
[3]
  MIC: 128 µg/mL (≈ 252 µM)
[4]
  MIC: 8 µg/mL (≈ 15.7 µM)
[5]
  MIC: 16 µg/mL (≈ 31.5 µM)

## CO/N=C(\C)C(=O)N[C@H](C)[C@H]1C(=O)N2C(C(=O)O)=C(S[C@@H]3CN[C@H](C(=O)N(C)C)C3)[C@H](C)[C@H]12 [Example 54]
[1]
  MIC: > 128 µg/mL
[2]
  MIC: 8 µg/mL (≈ 16.6 µM)
[3]
  MIC: 1 µg/mL (≈ 2.08 µM)
[4]
  MIC: > 128 µg/mL
[5]
  MIC: > 128 µg/mL

## C[C@@H](NS(=O)(=O)N(C)C)[C@H]1C(=O)N2C(C(=O)O)=C(S[C@@H]3CN[C@H](C(=O)N(C)C)C3)[C@H](C)[C@H]12 [Example 57]
[1]
  MIC: 128 µg/mL (≈ 261 µM)
[2]
  MIC: 4 µg/mL (≈ 8.17 µM)
[3]
  MIC: 32 µg/mL (≈ 65.4 µM)
[4]
  MIC: > 128 µg/mL
[5]
  MIC: 16 µg/mL (≈ 32.7 µM)

## COC(=O)C(=O)N[C@H](C)[C@H]1C(=O)N2C(C(=O)O)=C(S[C@@H]3CN[C@H](C(=O)N(C)C)C3)[C@H](C)[C@H]12 [Example 74]
[1]
  MIC: 4 µg/mL (≈ 8.54 µM)
[2]
  MIC: 1 to 2 µg/mL (≈ 2.13 to 4.27 µM)
[3]
  MIC: 8 to 16 µg/mL (≈ 17.1 to 34.1 µM)
[4]
  MIC: 8 µg/mL (≈ 17.1 µM)
[5]
  MIC: 1 to 2 µg/mL (≈ 2.13 to 4.27 µM)
